Values of other authors in paper PMC7515950, “Physiologically based pharmacokinetic modeling to assess metabolic drug–drug interaction risks and inform the drug label for fedratinib” (Cancer Chemotherapy and Pharmacology, 2020).
Like-named read-outs stand apart in the source and are kept apart here.

Tests used:
OATP1B1 = biological target: T1, OATP1B1 (Homo sapiens, UniProt Q9Y6L6); conditions: read-out: Km of probe substrate, OATP1B1; from literature; ref [14]; cited from earlier work
T1 sequence (Q9Y6L6 1-691): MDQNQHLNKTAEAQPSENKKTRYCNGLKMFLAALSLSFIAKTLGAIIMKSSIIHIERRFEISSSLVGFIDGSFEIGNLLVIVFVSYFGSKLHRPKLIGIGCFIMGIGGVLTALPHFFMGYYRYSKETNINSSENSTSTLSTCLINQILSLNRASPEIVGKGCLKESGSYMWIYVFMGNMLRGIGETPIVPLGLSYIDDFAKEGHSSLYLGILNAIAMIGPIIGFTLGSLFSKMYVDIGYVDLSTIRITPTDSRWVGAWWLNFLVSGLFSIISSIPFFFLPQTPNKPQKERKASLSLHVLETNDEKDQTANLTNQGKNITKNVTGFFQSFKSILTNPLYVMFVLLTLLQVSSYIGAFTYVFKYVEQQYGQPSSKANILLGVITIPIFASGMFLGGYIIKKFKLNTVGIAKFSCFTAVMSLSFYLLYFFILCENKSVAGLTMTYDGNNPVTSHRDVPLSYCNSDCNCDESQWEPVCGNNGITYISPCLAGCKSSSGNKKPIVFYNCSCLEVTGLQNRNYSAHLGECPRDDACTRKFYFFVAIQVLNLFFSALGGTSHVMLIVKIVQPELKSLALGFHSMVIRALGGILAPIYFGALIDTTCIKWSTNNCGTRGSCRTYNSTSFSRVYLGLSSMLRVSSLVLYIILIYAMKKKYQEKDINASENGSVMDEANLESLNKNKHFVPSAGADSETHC

OCT2 = biological target: T2, OCT2 (Homo sapiens, UniProt O15244); conditions: read-out: Km of probe substrate, OCT2; from literature; ref [12]; cited from earlier work
T2 sequence (O15244 1-555): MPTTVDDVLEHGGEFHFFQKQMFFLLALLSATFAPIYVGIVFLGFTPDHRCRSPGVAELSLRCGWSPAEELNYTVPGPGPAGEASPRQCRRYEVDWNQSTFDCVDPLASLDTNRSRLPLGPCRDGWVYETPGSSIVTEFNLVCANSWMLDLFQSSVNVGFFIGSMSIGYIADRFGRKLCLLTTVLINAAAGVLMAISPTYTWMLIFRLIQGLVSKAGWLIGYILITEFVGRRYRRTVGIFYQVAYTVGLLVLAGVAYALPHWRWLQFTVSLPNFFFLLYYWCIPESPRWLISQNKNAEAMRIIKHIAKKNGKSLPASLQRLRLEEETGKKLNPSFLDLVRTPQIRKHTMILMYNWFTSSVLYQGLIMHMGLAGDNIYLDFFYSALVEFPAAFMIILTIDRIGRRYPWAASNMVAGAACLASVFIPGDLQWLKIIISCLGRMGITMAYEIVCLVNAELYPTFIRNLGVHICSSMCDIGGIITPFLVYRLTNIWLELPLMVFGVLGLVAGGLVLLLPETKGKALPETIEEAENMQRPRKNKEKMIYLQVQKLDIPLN

[1] = cancer patients, observation, cited from earlier work; for AUC GM Ratio (90% CI) / Cmax GM Ratio (90% CI): cocktail substrate with vs without fedratinib 500 mg QD
Caco-2/TC7 = conditions: reference compound of the Simcyp permeability input, 7.4:7.4; cited from earlier work
OCT1 = biological target: T3, OCT1 (Homo sapiens, UniProt O15245); set-up: method as in earlier work; conditions: from literature; ref [11]; read-out: Km of probe substrate, OCT1; cited from earlier work
T3 construct: expressed in transfected cells; host or cells: CHO^Fi-hOCT1
T3 sequence (O15245 1-554): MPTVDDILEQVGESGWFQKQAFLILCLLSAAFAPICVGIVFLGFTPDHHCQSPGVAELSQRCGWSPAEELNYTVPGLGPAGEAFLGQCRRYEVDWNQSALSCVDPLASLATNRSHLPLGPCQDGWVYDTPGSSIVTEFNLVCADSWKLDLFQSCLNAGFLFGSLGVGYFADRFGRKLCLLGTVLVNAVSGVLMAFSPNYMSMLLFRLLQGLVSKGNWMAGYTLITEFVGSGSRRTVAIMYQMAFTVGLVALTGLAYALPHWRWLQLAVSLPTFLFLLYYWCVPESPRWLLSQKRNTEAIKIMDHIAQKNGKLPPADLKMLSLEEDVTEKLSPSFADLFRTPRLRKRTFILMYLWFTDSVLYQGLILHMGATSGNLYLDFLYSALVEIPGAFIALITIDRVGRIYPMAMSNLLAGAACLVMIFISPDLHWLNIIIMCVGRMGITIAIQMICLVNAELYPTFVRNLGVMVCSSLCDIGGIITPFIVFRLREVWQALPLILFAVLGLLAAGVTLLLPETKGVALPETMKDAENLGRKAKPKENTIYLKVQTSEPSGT

P-gp = P-gp (Homo sapiens, UniProt P08183); conditions: read-out: Km of probe substrate, P-gp; from literature; ref [16]; cited from earlier work
OATP1B3 = biological target: T4, OATP1B3 (Homo sapiens, UniProt Q9NPD5); conditions: cited from earlier work
T4 sequence (Q9NPD5 1-702): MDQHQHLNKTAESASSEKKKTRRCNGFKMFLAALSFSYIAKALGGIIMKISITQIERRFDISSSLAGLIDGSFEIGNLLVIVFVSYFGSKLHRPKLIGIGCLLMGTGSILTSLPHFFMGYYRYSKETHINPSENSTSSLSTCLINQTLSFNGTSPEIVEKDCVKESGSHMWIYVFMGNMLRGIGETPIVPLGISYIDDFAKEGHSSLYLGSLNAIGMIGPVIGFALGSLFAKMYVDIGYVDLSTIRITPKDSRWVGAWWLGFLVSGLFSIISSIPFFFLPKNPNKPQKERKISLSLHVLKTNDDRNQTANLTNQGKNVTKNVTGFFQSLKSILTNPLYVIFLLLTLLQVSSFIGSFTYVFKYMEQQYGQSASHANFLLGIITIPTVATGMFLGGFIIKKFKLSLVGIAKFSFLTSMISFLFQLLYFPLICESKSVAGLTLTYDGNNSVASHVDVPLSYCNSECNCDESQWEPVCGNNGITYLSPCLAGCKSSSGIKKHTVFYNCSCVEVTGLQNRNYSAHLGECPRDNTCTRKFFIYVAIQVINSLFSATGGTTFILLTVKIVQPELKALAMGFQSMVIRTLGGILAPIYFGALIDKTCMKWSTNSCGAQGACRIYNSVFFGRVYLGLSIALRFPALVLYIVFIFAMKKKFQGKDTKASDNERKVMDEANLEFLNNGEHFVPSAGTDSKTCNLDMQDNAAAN

[2] = cocktail substrate + fedratinib 500 mg QD, GM
[3] = cocktail substrate + fedratinib 500 mg QD, Mean (SD)
[4] = cocktail substrate alone, Mean (SD)

P-gp, sequence (P08183 whole entry): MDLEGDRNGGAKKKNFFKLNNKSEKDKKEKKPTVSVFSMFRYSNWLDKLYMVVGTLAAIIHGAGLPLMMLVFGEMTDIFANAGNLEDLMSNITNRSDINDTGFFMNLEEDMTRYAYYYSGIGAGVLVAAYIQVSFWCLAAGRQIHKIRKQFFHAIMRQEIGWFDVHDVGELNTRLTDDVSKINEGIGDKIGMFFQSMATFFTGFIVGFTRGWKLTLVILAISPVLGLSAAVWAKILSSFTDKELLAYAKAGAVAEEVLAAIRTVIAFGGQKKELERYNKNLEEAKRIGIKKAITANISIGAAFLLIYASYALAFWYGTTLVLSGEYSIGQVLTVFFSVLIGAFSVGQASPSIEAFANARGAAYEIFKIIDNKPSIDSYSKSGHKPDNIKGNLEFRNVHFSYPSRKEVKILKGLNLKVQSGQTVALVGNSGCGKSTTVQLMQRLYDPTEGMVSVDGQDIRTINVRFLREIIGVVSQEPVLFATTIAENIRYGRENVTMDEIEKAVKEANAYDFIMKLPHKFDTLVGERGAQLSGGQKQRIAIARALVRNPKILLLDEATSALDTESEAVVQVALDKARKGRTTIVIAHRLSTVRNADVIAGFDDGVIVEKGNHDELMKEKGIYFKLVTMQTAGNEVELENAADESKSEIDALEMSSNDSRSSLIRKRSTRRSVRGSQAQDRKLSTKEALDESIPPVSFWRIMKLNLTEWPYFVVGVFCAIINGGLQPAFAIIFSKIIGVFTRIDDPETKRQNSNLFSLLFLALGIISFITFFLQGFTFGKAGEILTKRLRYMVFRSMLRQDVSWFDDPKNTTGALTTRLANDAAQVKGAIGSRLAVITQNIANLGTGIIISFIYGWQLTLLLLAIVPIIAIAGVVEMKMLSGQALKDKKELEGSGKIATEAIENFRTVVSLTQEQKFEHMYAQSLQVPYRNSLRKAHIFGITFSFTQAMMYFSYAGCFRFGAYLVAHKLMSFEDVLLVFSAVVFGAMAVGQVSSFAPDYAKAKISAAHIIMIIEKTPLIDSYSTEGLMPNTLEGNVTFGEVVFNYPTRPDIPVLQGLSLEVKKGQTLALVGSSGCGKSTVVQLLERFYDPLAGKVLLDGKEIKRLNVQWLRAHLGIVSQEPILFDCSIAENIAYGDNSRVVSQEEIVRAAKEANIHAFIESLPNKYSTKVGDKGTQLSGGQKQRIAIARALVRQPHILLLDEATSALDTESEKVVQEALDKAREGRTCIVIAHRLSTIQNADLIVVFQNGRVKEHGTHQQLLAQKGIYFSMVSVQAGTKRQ

Compound	AUC (AUCinf) [1, 2] [ng·h/mL]	Cmax [1, 2] [ng/mL]	AUC (AUCinf) [1, 3]	Cmax [1, 3]	AUC (AUCinf) ([1]; cocktail substrate alone, GM) [ng·h/mL]	AUC (AUCinf) [1, 4]	AUC GM Ratio (90% CI) [1]	Cmax GM Ratio (90% CI) [1]	other results
C[C@]12CC[C@@H]3c4ccc(O)cc4CC[C@H]3[C@@H]1CC[C@@H]2O[C@@H]1O[C@H](C(=O)O)[C@@H](O)[C@H](O)[C@H]1O [Estradiol-17β-glucuronide]	–	–	–	–	–	–	–	–	Km (OATP1B1): 8.17 µM
CN(C)C(=N)N=C(N)N [Metformin]	–	–	–	–	–	–	–	–	Km (OCT2): 235 µM
COCCc1ccc(OCC(O)CNC(C)C)cc1 (stereo not drawn) [Metoprolol]	1180	199	1460 (938) ng/mL·h	221 (106) ng/mL	731	880 (545) ng/mL·h	1.77 (1.27–2.47)	1.60 (1.25–2.05)	AUC GM Ratio (90% CI) ([1]; listed as metoprolol): 1.77; Cmax GM Ratio (90% CI) ([1]; listed as metoprolol): 1.60
Cc1ncc2n1-c1ccc(Cl)cc1C(c1ccccc1F)=NC2 [Midazolam]	148	24.2	152 (38.6) ng/mL·h	25.9 (8.75) ng/mL	41.5	52.2 (37.9) ng/mL·h	3.84 (2.62–5.63)	1.82 (1.49–2.21)	Cmax ([1]; cocktail substrate alone (midazolam 2 mg, omeprazole 20 mg, metoprolol 100 mg once), GM): 13.4 ng/mL; Cmax ([1]; cocktail substrate alone (midazolam 2 mg, omeprazole 20 mg, metoprolol 100 mg once), Mean (SD)): 14.8 (7.56) ng/mL
COc1ccc2[nH]c([S+]([O-])Cc3ncc(C)c(OC)c3C)nc2c1 (stereo not drawn) [Omeprazole]	4690	537	5950 (3560) ng/mL·h	615 (286) ng/mL	1590	2210 (1740) ng/mL·h	2.82 (2.26–3.53)	1.12 (0.81–1.53)	AUC GM Ratio (90% CI) ([1]; listed as omeprazole): 2.82; Cmax GM Ratio (90% CI) ([1]; listed as omeprazole): 1.12
CC(C)NCC(O)COc1cccc2ccccc12 (stereo not drawn) [Propranolol]	–	–	–	–	–	–	–	–	Reference Compound Value (PCaco-2) (Caco-2/TC7): 43.000 10E-06 cm/s
CC[N+](CC)(CC)CC [TEA]	–	–	–	–	–	–	–	–	Km (OCT1): 296 µM
C[C@H]1O[C@@H](O[C@H]2[C@@H](O)C[C@H](O[C@H]3[C@@H](O)C[C@H](O[C@H]4CC[C@@]5(C)[C@H](CC[C@@H]6[C@@H]5C[C@@H](O)[C@]5(C)[C@@H](C7=CC(=O)OC7)CC[C@]65O)C4)O[C@@H]3C)O[C@@H]2C)C[C@H](O)[C@@H]1O [digoxin]	–	–	–	–	–	–	–	–	Km (P-gp): 385 µM
CCK8	–	–	–	–	–	–	–	–	Km (OATP1B3): 3.8 µM
